Ends that are not written are not given here.
Key:
HCMV strain AD169 = assay: HCMV plaque formation assay in MRC-5 cells; conditions: for inhibition of HCMV plaque formation as compared to the virus control experiment: 10 micrograms per ml, 7-10 days
Text: Cells were split twic a week 1:2.
Ganciclovir was used as positive control.

[1] = tested on: spleen cells of Ovalbumin-immunized Balb/c mice; assay: Th1/Th2 cytokine profiling assay (Mouse Th1/Th2 Cytokine CBA Kit); assay type: cell-based; conditions: 10 micrograms per ml; Ovalbumin restimulation, 72 hours
Text: The Balb/c mice (originated in 1923, it is a popular strain and is used in many different research disciplines. Also classified as an inbred from the production of 20 or more successive brother-sister matings, the Balb/c mouse is albino and small in size) were immunized on Days 1, 15, and 29 with Ovalbumin (Ovalbumin is the main protein found in egg white, commonly used to stimulate an immunological reaction in test animals) in PBS (5 micrograms/injection). On day 50, spleens of the mice were harvested (3 weeks after last boost with Ovalbumin). Cells were cultured (2×10^5/well in triplicate) and incubated with culture medium or test peptides—10 micrograms per ml—for 30 min. Thereafter, additional Ovalbumin was added to the cells at 10 micrograms/ml for in vitro restimulation of the cells. 72 hours later, cell supernatants were harvested and assayed using the Becton Dickinson Mouse Th1/Th2 Cytokine CBA Kit.

HUVEC = assay: Endothelial tube formation assay; assay type: cell-based, human; conditions: 10 micrograms per ml, 20 hours
Text: Positive control was vehicle only. […] Raw data were expressed as average tubule lenghs in pixels±standard deviation.

[2] = tested on: Primary Human endothelial cells (HUVEC); assay: Endothelial cell migration assay; assay type: cell-based; conditions: 10 micrograms per ml, 22 hours
Method: Thereafter, designated concentration of testing peptides—10 micrograms per ml—was added in duplicate wells.

RAW 264.7 cells = assay: Phagocytosis assay (Fluorescein-labeled Escherichia coli, flow cytometry); conditions: 10 micrograms per ml, Fluorescein-labeled E. coli, 60 min
[3] = tested on: hepatitis B virus (HBV) ayw strain; assay: HBV assay, secreted HBV DNA by TaqMan PCR in HepG2-2.2.15 cells; assay type: cell-based; conditions: 10 micrograms per ml, six days
Method: HepG2-2.2.15 is a stable cell line containing the hepatitis B virus (HBV) ayw strain genome (ATCC Cat. No. CRL-11997). […] After 16-24 hours the confluent monolayer of HepG2-2.2.15 cells was washed and the medium was replaced with complete medium containing test peptides-10 micrograms per ml—in duplicate. […] Three days later the culture medium was replaced with fresh medium containing the peptides. Six days following the initial administration of the peptides, the cell culture supernatants was collected, treated with pronase and DNAse and then used in a real-time quantitative TaqMan PCR assay. The PCR-amplified HBV DNA was detected in real-time by monitoring increases in fluorescence signals that result from the exonucleolytic degradation of a quenched fluorescence probe molecule that hybridizes to the mplified HBV DNA. For each PCR amplification, a standard curve was simultaneously generated using dilutions of purified HBV DNA. Antiviral activity was calculated from the reduction in HBV DNA levels (% virus control). A novel dye uptake assay was then employed to measure cell viability, which is used to calculate toxicity (% cell control).

| Compound | antiviral activity of positive control compounds (HIV-1) (HIV-1IIIB) | IFNγ spleen cells; TH1 response (% of control) [1] | IL-2 spleen cells (% of control) [1] | IL-4 spleen cells; TH2 response (% of control) [1] | IL-5 spleen cells; TH2 response (% of control) [1] | TNF-a spleen cells; TH1 response (% of control) [1] | inhibition of HCMV plaque formation as compared to the virus control experiment (HCMV strain AD169) [%] | inhibition of the tube formation of human endothelial cells (HUVEC) [%] | induction of phagocytosis as compared to the control experiment (RAW 264.7 cells) | other results |
| --- | --- | --- | --- | --- | --- | --- | --- | --- | --- | --- |
| Cc1cn([C@H]2C[C@H](N=[N+]=[N-])[C@@H](CO)O2)c(=O)[nH]c1=O [AZT] | expected levels of antiviral activity |  |  |  |  |  |  |  |  |  |
| Nc1nc(O)c2ncn(COC(CO)CO)c2n1 [Ganciclovir, reference compound] |  |  |  |  |  |  |  |  |  | antiviral activity of positive control compound (HCMV) (HCMV strain AD169; positive control, HCMV AD169): expected levels of antiviral activity |
| CC(C)(C)NC(=O)[C@@H]1CN(Cc2cccnc2)CCN1C[C@@H](O)C[C@@H](Cc1ccccc1)C(=O)N[C@H]1c2ccccc2C[C@H]1O [indinavir] | expected levels of antiviral activity |  |  |  |  |  |  |  |  |  |
| His-Ser-Gly-Pro-Arg-Arg-Thr-Gln-Ala-Gln-Leu-Leu-Arg-Val-Gly-Cys-Val-Leu-Gly-Thr-Cys-Gln-Val-Gln-Asn-Leu-Ser-His-Arg-Leu-Trp-Gln-Leu-Met-Gly-Pro-Ala-Gly-Arg-Gln-Asp-Ser-Ala-Pro-Val-Asp-Pro-Ser-Ser-Pro-His-Ser-Tyr-NH2 (HSGPRRTQAQLLRVGCVLGTCQVQNLSHRLWQLMGPAGRQDSAPVDPSSPHSY-NH2; cysteine pairing not given here) [peptide 1] |  | 21.7 % of control | 75.6 % of control | 166.9 % of control | 34.5 % of control | 70.0 % of control | 1.8 | 19 | did not induce phagocytosis | inhibition of the migration of endothelial cells [2]: 8% |
| Thr-Gln-Ala-Gln-Leu-Leu-Arg-Val-Gly-Cys-Val-Leu-Gly-Thr-Cys-Gln-Val-Gln-Asn-Leu-Ser-His-Arg-Leu-Trp-Gln-Leu-Met-Gly-Pro-Ala-Gly-Arg-Gln-Asp-Ser-Ala-Pro-Val-Asp-Pro-Ser-Ser-Pro-His-Ser-Tyr-NH2 [peptide 2] |  | 19.1 % of control | 98.9 % of control | 0.0 % of control | 17.9 % of control | 66.7 % of control | 0.7 | 12 | 34.3% | inhibition of HBV replication as compared to the virus control infection [3]: no effect; induction of the migration of human endothelial cells [2]: 19% |
